Test results: ChEMBL document CHEMBL1201862, “PubChem BioAssay data set” (2004)
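Briefly, cells in 96-well plates were exposed to five compound concentrations for 48 h, and endpoints were estimated by linear interpolation. GI50 = concentration required for 50% inhibition of growth.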 The source made the active and inactive calls. Rule as the data show it: active = GI50 up to about 1.1 µM and inactive = higher.

What was measured:
Assay in all cases: NCI anticancer screen, dose series, 48 h
HOP-92 = test system: HOP-92
SF-539 = test system: SF-539
SN12C = test system: SN12C
HCT-15 = test system: HCT-15
OVCAR-5 = test system: OVCAR-5
HL-60 = test system: HL-60
SNB-75 = test system: SNB-75
SK-OV-3 = test system: SK-OV-3
A549 = test system: A549
U-251 = test system: U-251
LOX IMVI = test system: LOX IMVI
SR = test system: SR
NCI-H226 = test system: NCI-H226
DMS-114 = test system: DMS-114
M14 = test system: M14
DLD-1 = test system: DLD-1
SK-MEL-2 = test system: SK-MEL-2
Malme-3M = test system: Malme-3M
K562 = test system: K562
KM12 = test system: KM12
HT-29 = test system: HT-29
SNB-19 = test system: SNB-19
SK-MEL-28 = test system: SK-MEL-28
NCI-H460 = test system: NCI-H460
HCT-116 = test system: HCT-116
SW-620 = test system: SW-620
HOP-62 = test system: HOP-62
CCRF-CEM = test system: CCRF-CEM
IGROV-1 = test system: IGROV-1
XF498 = test system: XF498
OVCAR-8 = test system: OVCAR-8
UACC-62 = test system: UACC-62
LXFL 529 = test system: LXFL 529
786-0 = test system: 786-0
UACC-257 = test system: UACC-257
NCI-H23 = test system: NCI-H23
ACHN = test system: ACHN
HOP-18 = test system: HOP-18
DMS-273 = test system: DMS-273
M19-MEL = test system: M19-MEL
SK-MEL-5 = test system: SK-MEL-5
TK-10 = test system: TK-10
OVCAR-3 = test system: OVCAR-3
RXF 631 = test system: RXF 631
SF-295 = test system: SF-295
EKVX = test system: EKVX
MOLT-4 = test system: MOLT-4
UO-31 = test system: UO-31
COLO 205 = test system: COLO 205
OVCAR-4 = test system: OVCAR-4
RPMI-8226 = test system: RPMI-8226
SNB-78 = test system: SNB-78
KM-20L2 = test system: KM-20L2
A498 = test system: A498
SF-268 = test system: SF-268
CAKI-1 = test system: CAKI-1
NCI-H522 = test system: NCI-H522
RXF 393 = test system: RXF 393
HCC 2998 = test system: HCC 2998

C=CC(C)(C)[C@@]12CC3C(=O)N[C@@H](Cc4ccccc4)C(=O)N3[C@@H]1N(C(C)=O)c1ccccc12 (some centres undefined)
GI50 (HOP-92): 25.2 µM (inactive)
GI50 (SF-539): > 100 µM (inactive)
GI50 (SN12C): 75.3 µM (inactive)
GI50 (HCT-15): 58.1 µM
GI50 (OVCAR-5): > 100 µM (inactive)
GI50 (HL-60): 30.3 µM (inactive)
GI50 (SNB-75): 59.8 µM (inactive)
GI50 (SK-OV-3): > 100 µM (inactive)
GI50 (A549): 74.1 µM (inactive)
GI50 (U-251): 93.3 µM (inactive)
GI50 (LOX IMVI): > 100 µM (inactive)
GI50 (SR): > 100 µM (inactive)
GI50 (NCI-H226): > 100 µM (inactive)
GI50 (DMS-114): 75.3 µM (inactive)
GI50 (M14): 57.8 µM (inactive)
GI50 (DLD-1): 66.2 µM (inactive)
GI50 (SK-MEL-2): > 100 µM (inactive)
GI50 (Malme-3M): > 100 µM (inactive)
GI50 (K562): 49.3 µM (inactive)
GI50 (KM12): 77.8 µM (inactive)
GI50 (HT-29): 62.2 µM (inactive)
GI50 (SNB-19): > 100 µM (inactive)
GI50 (SK-MEL-28): > 100 µM (inactive)
GI50 (NCI-H460): 48.8 µM (inactive)
GI50 (HCT-116): > 100 µM (inactive)
GI50 (SW-620): 88.7 µM (inactive)
GI50 (HOP-62): > 100 µM (inactive)
GI50 (CCRF-CEM): 57.1 µM (inactive)
GI50 (IGROV-1): > 100 µM (inactive)
GI50 (XF498): > 100 µM (inactive)
GI50 (OVCAR-8): 73.5 µM (inactive)
GI50 (UACC-62): > 100 µM (inactive)
GI50 (LXFL 529): 52.6 µM (inactive)
GI50 (786-0): > 100 µM (inactive)
GI50 (UACC-257): 68.4 µM (inactive)
GI50 (NCI-H23): > 100 µM (inactive)
GI50 (ACHN): 63.5 µM (inactive)
GI50 (HOP-18): 64 µM (inactive)
GI50 (DMS-273): 61.7 µM (inactive)
GI50 (M19-MEL): 87.5 µM (inactive)
GI50 (SK-MEL-5): 37.2 µM (inactive)
GI50 (TK-10): > 100 µM (inactive)
GI50 (OVCAR-3): 48.6 µM (inactive)
GI50 (RXF 631): 58.7 µM (inactive)
GI50 (SF-295): 97.3 µM (inactive)
GI50 (EKVX): 96.4 µM (inactive)
GI50 (MOLT-4): 27.4 µM (inactive)
GI50 (UO-31): 54.8 µM (inactive)
GI50 (COLO 205): 36.5 µM (inactive)
GI50 (OVCAR-4): 31.8 µM (inactive)
GI50 (RPMI-8226): 43.2 µM (inactive)
GI50 (SNB-78): > 100 µM (inactive)
GI50 (KM-20L2): > 100 µM (inactive)
GI50 (A498): > 100 µM (inactive)

COC(=O)C1=CNC(C(=O)OC)=NN1
GI50 (SF-268): > 100 µM (inactive)
GI50 (HOP-92): > 100 µM (inactive)
GI50 (SF-539): > 100 µM (inactive)
GI50 (SN12C): > 100 µM (inactive)
GI50 (HCT-15): > 100 µM
GI50 (HL-60): > 100 µM (inactive)
GI50 (SNB-75): > 100 µM (inactive)
GI50 (SK-OV-3): > 100 µM (inactive)
GI50 (A549): > 100 µM (inactive)
GI50 (U-251): > 100 µM (inactive)
GI50 (SR): > 100 µM (inactive)
GI50 (CAKI-1): > 100 µM (inactive)
GI50 (NCI-H226): > 100 µM (inactive)
GI50 (DMS-114): > 100 µM (inactive)
GI50 (M14): > 100 µM (inactive)
GI50 (DLD-1): > 100 µM (inactive)
GI50 (SK-MEL-2): > 100 µM (inactive)
GI50 (NCI-H522): > 100 µM (inactive)
GI50 (Malme-3M): > 100 µM (inactive)
GI50 (K562): > 100 µM (inactive)
GI50 (KM12): > 100 µM (inactive)
GI50 (HT-29): > 100 µM (inactive)
GI50 (SNB-19): > 100 µM (inactive)
GI50 (SK-MEL-28): > 100 µM (inactive)
GI50 (NCI-H460): > 100 µM (inactive)
GI50 (HCT-116): > 100 µM (inactive)
GI50 (SW-620): > 100 µM (inactive)
GI50 (HOP-62): > 100 µM (inactive)
GI50 (CCRF-CEM): > 100 µM (inactive)
GI50 (IGROV-1): > 100 µM (inactive)
GI50 (XF498): > 100 µM (inactive)
GI50 (OVCAR-8): > 100 µM (inactive)
GI50 (UACC-62): > 100 µM (inactive)
GI50 (LXFL 529): > 100 µM (inactive)
GI50 (786-0): > 100 µM (inactive)
GI50 (UACC-257): > 100 µM (inactive)
GI50 (NCI-H23): > 100 µM (inactive)
GI50 (ACHN): > 100 µM (inactive)
GI50 (HOP-18): > 100 µM (inactive)
GI50 (M19-MEL): > 100 µM (inactive)
GI50 (SK-MEL-5): > 100 µM (inactive)
GI50 (TK-10): > 100 µM (inactive)
GI50 (OVCAR-3): > 100 µM (inactive)
GI50 (RXF 631): > 100 µM (inactive)
GI50 (RXF 393): > 100 µM (inactive)
GI50 (SF-295): > 100 µM (inactive)
GI50 (EKVX): > 10 µM (inactive)
GI50 (MOLT-4): > 100 µM (inactive)
GI50 (UO-31): > 100 µM (inactive)
GI50 (COLO 205): > 100 µM (inactive)
GI50 (OVCAR-4): > 100 µM (inactive)
GI50 (RPMI-8226): > 100 µM (inactive)
GI50 (KM-20L2): > 100 µM (inactive)

Cc1ccc(C2=[N+]([O-])c3ccccc3C2=O)cc1
GI50 (HCC 2998): > 51.3 µM (inactive)
GI50 (SF-268): 35.1 µM (inactive)
GI50 (HOP-92): 9.23 µM (inactive)
GI50 (SF-539): 30.9 µM (inactive)
GI50 (SN12C): 19.7 µM (inactive)
GI50 (HCT-15): 16.5 µM
GI50 (OVCAR-5): 52.6 µM (inactive)
GI50 (HL-60): 7.98 µM (inactive)
GI50 (SNB-75): 44.4 µM (inactive)
GI50 (SK-OV-3): > 100 µM (inactive)
GI50 (A549): 46.7 µM (inactive)
GI50 (U-251): 19 µM (inactive)
GI50 (LOX IMVI): 16.8 µM (inactive)
GI50 (SR): 36.1 µM (inactive)
GI50 (CAKI-1): > 100 µM (inactive)
GI50 (NCI-H226): 46.7 µM (inactive)
GI50 (DMS-114): 14.5 µM (inactive)
GI50 (M14): 21.7 µM (inactive)
GI50 (DLD-1): 21.9 µM (inactive)
GI50 (SK-MEL-2): > 46.8 µM (inactive)
GI50 (NCI-H522): 15.8 µM (inactive)
GI50 (Malme-3M): 22.9 µM (inactive)
GI50 (K562): 16.1 µM (inactive)
GI50 (KM12): 17 µM (inactive)
GI50 (HT-29): 26.3 µM (inactive)
GI50 (SNB-19): 31.9 µM (inactive)
GI50 (SK-MEL-28): 15.8 µM (inactive)
GI50 (NCI-H460): 36.3 µM (inactive)
GI50 (HCT-116): 23.6 µM (inactive)
GI50 (SW-620): 36.4 µM (inactive)
GI50 (HOP-62): > 100 µM (inactive)
GI50 (CCRF-CEM): 11.9 µM (inactive)
GI50 (IGROV-1): 15.7 µM (inactive)
GI50 (XF498): 12.9 µM (inactive)
GI50 (OVCAR-8): 17.3 µM (inactive)
GI50 (UACC-62): 17.5 µM (inactive)
GI50 (LXFL 529): 8.49 µM (inactive)
GI50 (786-0): 24 µM (inactive)
GI50 (UACC-257): 16.5 µM (inactive)
GI50 (NCI-H23): 19.2 µM (inactive)
GI50 (ACHN): 16 µM (inactive)
GI50 (HOP-18): 27.4 µM (inactive)
GI50 (M19-MEL): > 36.1 µM (inactive)
GI50 (SK-MEL-5): 13.6 µM (inactive)
GI50 (TK-10): > 31.6 µM (inactive)
GI50 (OVCAR-3): 16.6 µM (inactive)
GI50 (RXF 631): 22.2 µM (inactive)
GI50 (RXF 393): 17.7 µM (inactive)
GI50 (SF-295): 28.8 µM (inactive)
GI50 (EKVX): 24.7 µM (inactive)
GI50 (MOLT-4): 24.7 µM (inactive)
GI50 (UO-31): > 56.1 µM (inactive)
GI50 (COLO 205): 28.9 µM (inactive)
GI50 (RPMI-8226): 29.4 µM (inactive)
GI50 (SNB-78): 31.7 µM (inactive)
GI50 (KM-20L2): 40.4 µM (inactive)
GI50 (A498): > 100 µM (inactive)
